The subject of one experiment is HONE1. Nature of the experiment: Cytotoxicity against human HONE1 cells. The format is functional, cell-based.
Another experiment deals with NUGC. Nature of the experiment: Cytotoxicity against human NUGC cells. The format is functional, cell-based.

Each structure is given as a SMILES string. Active and inactive are the calls of the source. The rule behind the calls is not given here.

Turning to `O=C1C[C@@H]2[C@@H](O)CCCN2[C@H](n2cnc3ccccc3c2=O)C1`, the result in the experiment on HONE1 and in the experiment with NUGC was inactive.
Regarding `CC1(C)[C@@H](n2cnc3ccccc3c2=O)C(=O)C[C@@H]2[C@@H](O)CCCN21`, the outcome with HONE1 and in the experiment with NUGC was inactive.
In the case of `O=C(C[C@@H]1NCCC[C@H]1O)Cn1cnc2ccccc2c1=O`, the outcome in the experiment with HONE1 and in the experiment on NUGC was inactive.

The values above are taken from ChEMBL document CHEMBL1155729, “Hydrachine A, a novel alkaloid from the roots of Hydrangea chinensis” (J Nat Prod, 2001).
